Series [1] deals with MCF7. The experiment in a line: In vitro cytotoxicity studies, MCF7. It is filed as cell-based, human. The method, then: (§1) In vitro cytotoxicity studies were conducted to determine the cytotoxic effect of paclitaxel (as a free drug/not in nanoparticle), 17AAG (free drug), paclitaxel+17AAG combination (as free drugs), and paclitaxel+17AAG combination loaded nanoparticles on two human breast cancer cell lines, SKBR3 and MCF7.
(§2) In preparation of the drug combination treatment, one part of each drug was halved and combined, such that each drug in the combination treatment contained half the concentration of their single drug counterparts. This means that the paclitaxel concentration in the combination treatment is 50% of the paclitaxel (single drug) treatment. In other words, the ratio of the concentration in the single drug to its respective concentration in the combination is 2:1. Also, the drug concentration ratio within the combination (paclitaxel: 17AAG) was approximately 1:1.
(§3) For 5 days of assaying, three plates were treated for each day. The first was treated with paclitaxel solution (single drug) and paclitaxel/17AAG combination solution and second with 17AAG solution (single drug) and paclitaxel/17AAG combination solution. The last plate was treated with the combination drug loaded nanoparticle solution and paclitaxel/17AAG combination solution (free drug).

The subject of series [2] is SKBR3. The experiment in a line: In vitro cytotoxicity studies, SKBR3. It is filed as cell-based, human. The protocol: as §1, §2, §3
For series [3] the following is noted: pH 5.0 versus pH 7.4; cited from earlier work.

SMILES strings stand for the structures.

`C=CCNC1=C2C[C@@H](C)C[C@H](OC)[C@H](O)[C@@H](C)/C=C(\C)[C@H](OC(N)=O)[C@@H](OC)/C=C\C=C(/C)C(=O)NC(=CC1=O)C2=O` [Formulation 17AAG, 17 allylamino, 17 demethoxygeldanamycin]: the “Cytotoxic effect at low concentrations” value in series [1] and in series [2] was “did not show any significant cytotoxic effect” in each case. As to `C=C(C)C(=O)OCCOC(OCCOC(=O)C(=C)C)c1ccc(OC)cc1OC` [di (2-methacryloyloxyethoxy)-[2,4-dimethoxyphenyl]methane], the Hydrolysis rate entry in series [3] is “hydrolyzes much faster at pH 5.0 than at pH 7.4”.
